According to paper PMC11423305, “Structure-Based Design of CBP/EP300 Degraders: When Cooperativity Overcomes Affinity” (JACS Au, 2024):

Tests used:
EP300 = molecular target: T1, EP300 (Homo sapiens, UniProt Q09472); assay: Quantification of EP300 degradation by Western blotting in LP1 cells; assay type: cell-based; conditions: 5 μM compound, 16 h, Western blot
T1 construct: quantification of CBP and EP300 levels by Western blotting following 16 h treatment of LP1 cells; endogenous in cells; host or cells: LP1 cells
T1 sequence (Q09472 whole entry): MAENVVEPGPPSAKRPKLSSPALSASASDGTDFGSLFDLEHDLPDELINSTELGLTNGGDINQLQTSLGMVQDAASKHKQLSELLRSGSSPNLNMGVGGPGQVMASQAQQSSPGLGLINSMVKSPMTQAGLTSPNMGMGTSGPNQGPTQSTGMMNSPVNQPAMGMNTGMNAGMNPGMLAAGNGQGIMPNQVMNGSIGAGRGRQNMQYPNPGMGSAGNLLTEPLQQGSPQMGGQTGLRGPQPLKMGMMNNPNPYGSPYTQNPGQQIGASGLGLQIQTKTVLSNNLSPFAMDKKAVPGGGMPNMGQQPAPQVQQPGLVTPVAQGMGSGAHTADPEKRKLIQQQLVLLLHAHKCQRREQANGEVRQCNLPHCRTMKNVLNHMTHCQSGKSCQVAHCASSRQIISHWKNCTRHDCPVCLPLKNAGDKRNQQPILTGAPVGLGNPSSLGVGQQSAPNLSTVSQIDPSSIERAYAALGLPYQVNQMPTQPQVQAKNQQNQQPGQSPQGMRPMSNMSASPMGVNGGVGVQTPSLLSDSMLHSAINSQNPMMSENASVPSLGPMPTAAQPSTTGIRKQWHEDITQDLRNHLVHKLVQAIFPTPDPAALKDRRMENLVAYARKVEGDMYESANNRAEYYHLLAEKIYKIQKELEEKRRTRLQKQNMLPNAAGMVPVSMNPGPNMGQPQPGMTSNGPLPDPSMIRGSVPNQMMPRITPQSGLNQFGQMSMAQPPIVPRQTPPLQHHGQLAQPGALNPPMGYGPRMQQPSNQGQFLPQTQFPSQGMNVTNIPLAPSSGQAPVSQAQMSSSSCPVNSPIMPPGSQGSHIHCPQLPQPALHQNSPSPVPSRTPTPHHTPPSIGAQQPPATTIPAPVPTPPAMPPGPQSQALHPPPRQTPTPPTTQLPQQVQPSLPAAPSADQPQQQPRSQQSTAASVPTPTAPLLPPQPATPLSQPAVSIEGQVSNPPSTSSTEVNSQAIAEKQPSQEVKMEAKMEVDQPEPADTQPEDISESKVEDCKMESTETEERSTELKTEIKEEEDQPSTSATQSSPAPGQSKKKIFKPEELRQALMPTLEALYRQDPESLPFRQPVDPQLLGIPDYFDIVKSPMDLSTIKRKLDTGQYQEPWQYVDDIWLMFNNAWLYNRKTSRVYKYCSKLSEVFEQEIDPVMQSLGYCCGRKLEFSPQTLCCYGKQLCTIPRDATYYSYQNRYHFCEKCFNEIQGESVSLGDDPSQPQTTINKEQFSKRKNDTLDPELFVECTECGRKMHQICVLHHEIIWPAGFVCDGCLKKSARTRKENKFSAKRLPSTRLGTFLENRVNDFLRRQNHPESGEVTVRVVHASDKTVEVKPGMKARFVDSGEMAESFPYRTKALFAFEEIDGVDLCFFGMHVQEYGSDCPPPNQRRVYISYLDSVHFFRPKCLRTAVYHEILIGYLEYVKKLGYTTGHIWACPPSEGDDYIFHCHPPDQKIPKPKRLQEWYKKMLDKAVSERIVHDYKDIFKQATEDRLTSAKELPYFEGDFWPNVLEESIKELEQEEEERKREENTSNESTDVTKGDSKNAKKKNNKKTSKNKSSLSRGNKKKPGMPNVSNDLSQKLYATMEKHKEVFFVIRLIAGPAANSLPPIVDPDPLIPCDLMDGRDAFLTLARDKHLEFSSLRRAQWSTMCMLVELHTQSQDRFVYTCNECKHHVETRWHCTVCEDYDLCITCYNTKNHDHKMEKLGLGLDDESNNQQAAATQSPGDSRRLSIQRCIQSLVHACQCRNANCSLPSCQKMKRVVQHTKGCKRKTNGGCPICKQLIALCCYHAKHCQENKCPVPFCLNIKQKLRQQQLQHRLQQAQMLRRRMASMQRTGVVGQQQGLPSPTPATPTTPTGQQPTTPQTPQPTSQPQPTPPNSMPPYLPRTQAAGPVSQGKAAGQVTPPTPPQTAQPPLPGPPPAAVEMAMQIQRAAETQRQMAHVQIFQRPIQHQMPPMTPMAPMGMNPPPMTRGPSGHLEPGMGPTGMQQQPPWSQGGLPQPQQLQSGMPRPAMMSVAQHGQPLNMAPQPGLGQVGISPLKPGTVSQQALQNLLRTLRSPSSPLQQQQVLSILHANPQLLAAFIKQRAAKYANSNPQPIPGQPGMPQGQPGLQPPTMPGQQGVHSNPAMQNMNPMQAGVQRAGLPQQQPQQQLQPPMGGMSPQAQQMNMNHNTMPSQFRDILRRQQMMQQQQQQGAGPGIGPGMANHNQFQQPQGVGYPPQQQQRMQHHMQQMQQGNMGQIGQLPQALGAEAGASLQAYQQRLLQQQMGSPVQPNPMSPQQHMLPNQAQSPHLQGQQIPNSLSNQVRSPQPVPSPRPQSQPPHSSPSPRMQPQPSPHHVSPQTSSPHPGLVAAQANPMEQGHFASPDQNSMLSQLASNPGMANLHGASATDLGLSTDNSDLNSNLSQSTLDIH
Procedure: LP1 cells were cultured in DMEM (Gibco, 41966-029) supplemented with 15 % FBS (Sigma, F9665); MM1S and LNCaP cells in RPMI 1640 ATCC modification (Gibco, […]
DMEM/F12 (Gibco, 11320074) supplemented with 1 % non-essential amino acids […]
additionally supplemented with 1 % penicillin/streptomycin (Gibco, 15070-063), and cells maintained in a humidified incubator with 5 % CO2 at 37 °C. The identity of all lines (except for MM1S which were recently purchased from ATCC) was authenticated by STR profiling (performed by Microsynth).
Quantification of CBP/EP300 degradation by Western blotting
LP1 cells plated on 6 well plates were treated with the stated compounds at a final concentration of 0.1 % DMSO for the stated time. Cells were harvested on ice, washed in PBS and lysed in RIPA buffer (50 mM tris pH 7.5, 2 mM EDTA, 150 mM NaCl, 0.5 % sodium deoxycholate, 1 % Triton X100) supplemented with cOmplete ™ protease inhibitor cocktail (Roche). Protein concentrations were determined using the Pierce ™ BCA Protein Assay Kit (Thermo Scientific, 23227) and equal amounts were separated on 4-12 % ExpressPl us™ PAGE gels (GenScript, M41215). Proteins were transferred to PVDF membranes, the membranes were blocked with 5 % milk (Merk Millipore, 115363) in PBS-T and proteins were stained with the following antibodies at 4 °C overnight: CBP […]
BRD4 (Bethyl Laboratories, A301-985A50, diluted 1:2000) and vinculin (Invitrogen, 42H89L44, diluted 1:1000). For detection, membranes were incubated for 1 h at room temperature with HRP-conjugated secondary antibodies (Southern Biotech, anti-rabbit […]
SuperSignal™ West Pico PLUS Chemiluminescent Substrate (Thermo Scientific, 34580) and the Vilber Fusion-FX7 imager. Bands were quantified using ImageJ software and protein levels normalized to protein from DMSO treated cells run on the same membrane. For dose response curves, data was fitted using a four -parameter dose-response curve in GraphPad Prism v. 9.5.1, where the top is fixed at 100 %. The DC50 was defined as the PROTAC concentration resulting in 50 % remaining protein. […]

LP1 cells = assay: Cell viability (resazurin), LP1; assay type: cell-based; conditions: Homo sapiens, LP-1, 72 h, 3 days
Procedure: The primer sequences used were:
Gene Gene ID Forward Primer (5’-3’) Reverse primer (5’-3’)
myc NM_001354870.1 GTAGTGGAAAACCAGCC […]
crebbp NM_004380.3 TGTCACAGGGACAGGTGC […]
Cells were plated onto 96 well plates at the following densities in 90 μl volume: 3x104
LP1 cells/well or 5x10^3 LNCaP cells/well both plated same day as treatment, or 2x104
MM1S cells/well or 1.5x10^3 SH-SY5Y cells/well both plated day prior to treatment.
Compounds were added in 10 μl to give the stated concentrations with a final
concentration of 0.1 % DMSO. Following 3 days of compound treatment, resazurin
(Acros Organics, 189900010) was added at a f inal concentration of 86 μM and incubated
for the following times: MM1S 5 h, LP1 3 h, LNCaP 1 h 30 min, SH-SY5Y 6 h.
Fluorescence (excitation = 560 nm, emission = 590 nm) was measured using a
spectraMax M5 microplate reader (Molecular Devices) and cell viability was calculated
relative to DMSO treated cells on the same plate. Data was fitted using a four -parameter
dose-response curve in GraphPad Prism v. 9.5.1, where the top is fixed at 100 %. GI50
values were calculated as the concentration required to inhibit cell viability to 50 %
relative to DMSO treated cells after 3 days.
Sample digestion and clean up: Treated cells were washed in PBS and cell pellets
were then lysed in 4 % SDS/Tris-HCl, treated with High Intensity Focused Ultrasound […]

% remaining EP300 (EP300): 43%
SMILES: Cc1cc2c(NC(=O)c3cc(NC(=O)CCCCCCCCCCNc4cccc5c4C(=O)N(C4CCC(=O)NC4=O)C5=O)cc(-c4ccn(C)n4)c3)cccc2nn1 (centres unmarked) [dCE-2]
GI50 (LP1 cells): 1500 nM
